Read-outs that look alike come from different tables or passages of the source.
What was measured:
[1] = tested on: Fusarium graminearum (ear rot of maize); assay type: cell-based; conditions: solo, 48 hrs
[2] = tested on: Fusarium graminearum (ear rot of maize); assay type: cell-based; conditions: solo, 48 hrs; remark: listed apart in the source

SMILES	Observed control in % ([1]; 0.004 ppm (mg a.i./liter final medium)) [%]	Observed control in % ([1]; 0.008 ppm) [%]	Observed control in % ([1]; 0.016 ppm) [%]	Observed control in % ([1]; 0.031 ppm) [%]	Observed control in % ([1]; 0.063 ppm) [%]	Observed control in % ([1]; 0.125 ppm) [%]	Observed control in % ([1]; 0.25 ppm) [%]	Observed control in % ([1]; 0.5 ppm) [%]	Observed control in % ([1]; 1.0 ppm) [%]	Observed control in % ([1]; 2.0 ppm) [%]	Observed control in % ([2]; 0.008 ppm) [%]	Observed control in % ([2]; 0.25 ppm) [%]	Observed control in % ([2]; 0.5 ppm) [%]	Observed control in % ([2]; 2.0 ppm) [%]
CCCN(CCOc1c(Cl)cc(Cl)cc1Cl)C(=O)n1ccnc1 [A, prochloraz]	0	3	6	11	25	86	94	96	96	96				
CC1(C)CCC(Cc2ccc(Cl)cc2)C1(O)Cn1cncn1 (stereo not drawn) [B, metconazole]		3					93	95		96	3	93	95	96

— US20110105576A1 (priority 2008, published 2011)
